Assay results: PubChem BioAssay (NCI)
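A five-concentration, 48-hour dose response in 96-well plates underlies each endpoint, interpolated linearly between surrounding concentrations. Abbreviation: GI50, concentration required for 50% inhibition of growth. TGI marks complete inhibition of growth.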

Legend:
Experiment in all cases: DTP human tumour cell line panel, 48 h
HOP-62 NSCLC = tested on: HOP-62 NSCLC
PC-3 prostate = tested on: PC-3 prostate
UACC-257 melanoma = tested on: UACC-257 melanoma
EKVX NSCLC = tested on: EKVX NSCLC
NCI/ADR-RES ovarian = tested on: NCI/ADR-RES ovarian
A549 NSCLC = tested on: A549 NSCLC
UACC-62 melanoma = tested on: UACC-62 melanoma
MCF7 breast = tested on: MCF7 breast
MDA-MB-435 = tested on: MDA-MB-435
A498 renal = tested on: A498 renal
NCI-H23 lung = tested on: NCI-H23 lung
LOX IMVI melanoma = tested on: LOX IMVI melanoma
OVCAR-5 ovarian = tested on: OVCAR-5 ovarian
NCI-H522 lung = tested on: NCI-H522 lung
SR leukemia = tested on: SR leukemia
COLO 205 colon = tested on: COLO 205 colon
HCT-15 colon = tested on: HCT-15 colon
MALME-3M melanoma = tested on: MALME-3M melanoma
OVCAR-3 ovarian = tested on: OVCAR-3 ovarian
U251 CNS = tested on: U251 CNS
UO-31 renal = tested on: UO-31 renal
K-562 leukemia = tested on: K-562 leukemia
HS 578T breast = tested on: HS 578T breast
SF-539 CNS = tested on: SF-539 CNS
OVCAR-4 ovarian = tested on: OVCAR-4 ovarian
ACHN renal = tested on: ACHN renal
SNB-19 CNS = tested on: SNB-19 CNS
HCC-2998 colon = tested on: HCC-2998 colon
SK-MEL-28 melanoma = tested on: SK-MEL-28 melanoma
786-0 renal = tested on: 786-0 renal
SK-MEL-2 melanoma = tested on: SK-MEL-2 melanoma
BT-549 breast = tested on: BT-549 breast
M14 melanoma = tested on: M14 melanoma
SW-620 colon = tested on: SW-620 colon
OVCAR-8 ovarian = tested on: OVCAR-8 ovarian
SK-MEL-5 melanoma = tested on: SK-MEL-5 melanoma
TK-10 renal = tested on: TK-10 renal
NCI-H226 lung = tested on: NCI-H226 lung
CAKI-1 renal = tested on: CAKI-1 renal
SF-295 CNS = tested on: SF-295 CNS
MOLT-4 leukemia = tested on: MOLT-4 leukemia
T-47D breast = tested on: T-47D breast
SK-OV-3 ovarian = tested on: SK-OV-3 ovarian
HL-60(TB) leukemia = tested on: HL-60(TB) leukemia
DU-145 prostate = tested on: DU-145 prostate
HT29 colon = tested on: HT29 colon
MDA-MB-231 breast = tested on: MDA-MB-231 breast
KM12 colon = tested on: KM12 colon
SNB-75 CNS = tested on: SNB-75 CNS
NCI-H460 lung = tested on: NCI-H460 lung
RPMI-8226 leukemia = tested on: RPMI-8226 leukemia
CCRF-CEM leukemia = tested on: CCRF-CEM leukemia
SF-268 CNS = tested on: SF-268 CNS
HOP-92 NSCLC = tested on: HOP-92 NSCLC
IGROV1 ovarian = tested on: IGROV1 ovarian
HCT-116 colon = tested on: HCT-116 colon
SN12C renal = tested on: SN12C renal

## N#Cc1cnc(=O)n(C2CC(O)C(CO)O2)c1 (centres undefined)
HOP-62 NSCLC
  GI50: > 100 µM
  TGI: > 100 µM
PC-3 prostate
  GI50: > 100 µM
  TGI: > 100 µM
UACC-257 melanoma
  GI50: > 100 µM
  TGI: > 100 µM
EKVX NSCLC
  GI50: > 100 µM
  TGI: > 100 µM
NCI/ADR-RES ovarian
  GI50: > 100 µM
  TGI: > 100 µM
A549 NSCLC
  GI50: > 100 µM
  TGI: > 100 µM
UACC-62 melanoma
  GI50: > 100 µM
  TGI: > 100 µM
MCF7 breast
  GI50: > 100 µM
  TGI: > 100 µM
MDA-MB-435
  GI50: > 100 µM
  TGI: > 100 µM
A498 renal
  GI50: 17.5 µM
  TGI: 82 µM
NCI-H23 lung
  GI50: > 100 µM
  TGI: > 100 µM
LOX IMVI melanoma
  GI50: > 100 µM
  TGI: > 100 µM
OVCAR-5 ovarian
  GI50: > 100 µM
  TGI: > 100 µM
NCI-H522 lung
  GI50: > 100 µM
  TGI: > 100 µM
SR leukemia
  GI50: > 100 µM
  TGI: > 100 µM
COLO 205 colon
  GI50: > 100 µM
  TGI: > 100 µM
HCT-15 colon
  GI50: > 100 µM
  TGI: > 100 µM
MALME-3M melanoma
  GI50: > 100 µM
  TGI: > 100 µM
OVCAR-3 ovarian
  GI50: > 100 µM
  TGI: > 100 µM
U251 CNS
  GI50: > 100 µM
  TGI: > 100 µM
UO-31 renal
  GI50: 51.6 µM
  TGI: > 100 µM
K-562 leukemia
  GI50: 93.1 µM
  TGI: > 100 µM
HS 578T breast
  GI50: > 100 µM
  TGI: > 100 µM
SF-539 CNS
  GI50: > 100 µM
  TGI: > 100 µM
OVCAR-4 ovarian
  GI50: > 100 µM
  TGI: > 100 µM
ACHN renal
  GI50: > 100 µM
  TGI: > 100 µM
SNB-19 CNS
  GI50: > 100 µM
  TGI: > 100 µM
HCC-2998 colon
  GI50: > 100 µM
  TGI: > 100 µM
SK-MEL-28 melanoma
  GI50: > 100 µM
  TGI: > 100 µM
786-0 renal
  GI50: > 100 µM
  TGI: > 100 µM
SK-MEL-2 melanoma
  GI50: > 100 µM
  TGI: > 100 µM
BT-549 breast
  GI50: > 100 µM
  TGI: > 100 µM
M14 melanoma
  GI50: > 100 µM
  TGI: > 100 µM
SW-620 colon
  GI50: > 100 µM
  TGI: > 100 µM
OVCAR-8 ovarian
  GI50: > 100 µM
  TGI: > 100 µM
SK-MEL-5 melanoma
  GI50: > 100 µM
  TGI: > 100 µM
TK-10 renal
  GI50: > 100 µM
  TGI: > 100 µM
NCI-H226 lung
  GI50: > 100 µM
  TGI: > 100 µM
CAKI-1 renal
  GI50: > 100 µM
  TGI: > 100 µM
SF-295 CNS
  GI50: > 100 µM
  TGI: > 100 µM
MOLT-4 leukemia
  GI50: > 100 µM
  TGI: > 100 µM
T-47D breast
  GI50: > 100 µM
  TGI: > 100 µM
SK-OV-3 ovarian
  GI50: > 100 µM
  TGI: > 100 µM
HL-60(TB) leukemia
  GI50: > 100 µM
  TGI: > 100 µM
DU-145 prostate
  GI50: > 100 µM
  TGI: > 100 µM
HT29 colon
  GI50: > 100 µM
  TGI: > 100 µM
MDA-MB-231 breast
  GI50: > 100 µM
  TGI: > 100 µM
KM12 colon
  GI50: > 100 µM
  TGI: > 100 µM
SNB-75 CNS
  GI50: 44.1 µM
  TGI: > 100 µM
NCI-H460 lung
  GI50: > 100 µM
  TGI: > 100 µM
RPMI-8226 leukemia
  GI50: > 100 µM
  TGI: > 100 µM
CCRF-CEM leukemia
  GI50: > 100 µM
  TGI: > 100 µM
SF-268 CNS
  GI50: > 100 µM
  TGI: > 100 µM
HOP-92 NSCLC
  GI50: > 100 µM
  TGI: > 100 µM
IGROV1 ovarian
  GI50: > 100 µM
  TGI: > 100 µM
HCT-116 colon
  GI50: > 100 µM
  TGI: > 100 µM
SN12C renal
  GI50: > 100 µM
  TGI: > 100 µM
